In experiment [1] the target is T1, Adenosine receptor A1 (Rattus norvegicus, UniProt P25099).
T1 sequence (P25099 whole entry): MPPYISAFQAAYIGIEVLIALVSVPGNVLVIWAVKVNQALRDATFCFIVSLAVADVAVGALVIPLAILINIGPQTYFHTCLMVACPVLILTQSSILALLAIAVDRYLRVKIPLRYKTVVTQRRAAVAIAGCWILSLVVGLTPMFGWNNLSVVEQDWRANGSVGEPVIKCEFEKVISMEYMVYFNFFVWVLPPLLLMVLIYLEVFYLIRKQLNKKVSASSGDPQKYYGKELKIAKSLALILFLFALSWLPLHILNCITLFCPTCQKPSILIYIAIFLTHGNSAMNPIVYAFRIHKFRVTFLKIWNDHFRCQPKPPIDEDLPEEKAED
Put plainly: Evaluated for the binding affinity towards the Adenosine A1 receptor in cerebral cortices of Sprague-Dawley male rats using [3H]CHA as radioligand.

For experiment [2], the species on record is Rattus norvegicus. Description: Minimal effective dose in an rat anti-immobility effect using behavioral despair test. It is filed as functional. Conditions: read-out: MED.
In experiment [3] the target is Adenosine receptor A1 (Rattus norvegicus) (UniProt P25099). Put plainly: Binding affinity for Adenosine A1 receptor in cerebral cortices of Sprague-Dawley male rats using [3H]CHA.
Experiment [4] addresses T1, Adenosine receptor A1. Put plainly: Binding affinity towards the adenosine A1 receptor in cerebral cortices of Sprague-Dawley male rats using [3H]CHA as radioligand.
Another experiment deals with Phosphodiesterase 1 (Rattus norvegicus, UniProt Q63421+Q9EPR9+Q01066). Description: Evaluated for Ca++ dependent phosphodiesterase activity. It is filed as functional.
Experiment [5] is filed under the species Rattus norvegicus. Put plainly: Evaluated for Ca++ independent phosphodiesterase activity. Type of experiment: functional.
In experiment [6] the target is T2, Adenosine A2 receptor (Rattus norvegicus, UniProt P29276+P30543).
The target of experiment [7] is T1, Adenosine receptor A1. Put plainly: Binding affinity for Adenosine A1 receptor in cerebral cortices of Sprague-Dawley male rats using [3H]-CHA.
For experiment [8], the target named is T2, Adenosine A2 receptor. Put plainly: Binding affinity for Adenosine A2 receptor in corpora striata of rats using [3H]NECA. It is filed as protein assay.
Experiment [9] has as its target T1, Adenosine receptor A1.

pIC50, pKi: −log10 of the molar value.

Twelve molecules from ChEMBL document CHEMBL1124880 (J Med Chem, 1990) can be followed below.

By pIC50 is commonly meant the IC50 on a negative log10 scale, so that one unit is a factor of ten. A low value points to a large IC50. Regarding `CC(C)Nc1ncnc2c1ncn2[C@@H]1O[C@H](CO)[C@@H](O)[C@H]1O`, at Adenosine receptor A1 [1], the negative logarithm of the IC50 (pIC50) is 5.43.
Usually IC50 stands for the concentration at which inhibition is half-maximal. High values mean a need for much substance, low ones inhibition by little substance. For the molecule `CCc1nnc2c(N(C)C)nc3ccccc3n12`, the minimal effective dose in the experiment filed under Rattus norvegicus [2] was ≤ 3.2 mg/kg. In experiment [3], this molecule yielded a half-maximal inhibitory concentration (IC50) of 12000 nM.
Consider `Nc1nc2ccc(Cl)cc2n2c(C(F)(F)F)nnc12`, for which the negative-log IC50 (pIC50) at Adenosine receptor A1 [4] is 7.19; in the experiment filed under Rattus norvegicus [5], 5.70. In addition, the values for the IC50 against Phosphodiesterase 1 and against Adenosine A2 receptor [6] were > 10 µM and 44 nM, respectively. In the experiment listed under Rattus norvegicus [2], the minimal effective dose was 3.2 mg/kg.
The like results for `CCc1nnc2c(NC(C)C)nc3c(Cl)cccc3n12` were, in that order, 5.17, < 5.00, >> 10 uM, > 100000 nM and ≤ 32 mg/kg.
In the same order, the values of `COc1ccc2c(c1)nc(N)c1nncn12` are 5.85, < 5.00, >> 10 uM, 100 nM and 3.2 mg/kg.
In the same order, the values of `CC(C)Nc1nc2ccc(F)cc2n2c(C(F)(F)F)nnc12` are 7.24, 6.43, 24 µM, 3900 nM and ≤ 3.2 mg/kg.
As for `CCc1nnc2c(N)nc3ccccc3n12`, the values for the pIC50 at Adenosine receptor A1 [4] and in the experiment filed under Rattus norvegicus [5] were 6.37 and 4.92, respectively. The half-inhibitory concentration (IC50) on Phosphodiesterase 1 came out at 2 µM; on Adenosine A2 receptor [6], 62 nM. Moreover, the minimal effective dose in the experiment filed under Rattus norvegicus [2] came to 3.2 mg/kg.
The molecule `Nc1nc2ccc(Cl)cc2n2c(-c3ccc(Cl)cc3)nnc12` showed a negative logarithm of the IC50 (pIC50) at Adenosine receptor A1 [7] of 6.29. Also, at Adenosine A2 receptor [6], the 50% inhibitory concentration (IC50) was 33 nM.
As to `CCNc1nc2ccccc2n2c(CC)nnc12`, the negative logarithm of the IC50 (pIC50) was 5.74 on Adenosine receptor A1 [4] and 5.60 in the experiment filed under Rattus norvegicus [5]. Further, the IC50 came out at 20 µM at Phosphodiesterase 1 and 9500 nM at Adenosine A2 receptor [6]. In addition, the minimal effective dose in the experiment filed under Rattus norvegicus [2] came out at 3.2 mg/kg.
In the same order, the values of `CC(C)Cn1c(=O)n(C)c(=O)c2nc[nH]c21` [ISOBUTYLMETHYLXANTHINE] are 5.15, 5.46, 0.1 µM, 13000 nM and > 32 mg/kg.
The term Ki denotes a dissociation constant, usually derived from enzyme kinetics or from competition with a known ligand. A higher Ki goes with weaker binding. By pKi is commonly meant −log10 of the Ki, conventionally taken in molar units. High values mean a small Ki, low ones a large Ki. `OC[C@H]1O[C@@H](n2cnc3c(Nc4ccccc4)ncnc32)[C@H](O)[C@@H]1O` [N6-PHENYLADENOSINE]: at Adenosine receptor A1 [1], the pIC50 was 8.19. The same molecule came in with a Ki on Adenosine A2 receptor [8] of 50000 nM. In addition, the pKi at Adenosine receptor A1 [9] is 8.52.
For the molecule `COc1ccc(C2CNC(=O)C2)cc1OC1CCCC1` (stereo not drawn) [ROLIPRAM], the pIC50 at Adenosine receptor A1 [4] was < 4.00; in the experiment filed under Rattus norvegicus [5] it was 6.60. For the same molecule, the IC50 at Phosphodiesterase 1 is > 100 µM; against Adenosine A2 receptor [6], > 100000 nM. Besides, in the experiment filed under Rattus norvegicus [2], the minimal effective dose is > 32 mg/kg.
